Results: patent US12077503B2, “Substituted cyclic amides and their use as herbicides” (FMC CORPORATION, priority 2015, dated 2024)

Assays:
Assay type in all cases: in vivo
Kochia (Kochia scoparia) [1] = test: Test A preemergence; conditions: Bassia scoparia, pre-emergence, 240 h, read-out: Plant response rating, Kochia
In short: (§1)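 Treatment is preemergence as a directed soil spray after planting, or postemergence at the one- to two-leaf stage, with test chemical in a non-phytotoxic solvent mixture plus surfactant. Plants stay in the greenhouse about 10 d before visual injury scoring on a 0 to 100 scale versus untreated controls.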

[2] = tested on: barnyardgrass (Echinochloa crus-galli); test: Test A preemergence; conditions: Echinochloa crus-galli, pre-emergence, 240 h, read-out: Plant response rating, Barnyardgrass
In short: as §1

[3] = tested on: giant foxtail (Setaria faberii); test: Test A preemergence; conditions: Setaria faberi, pre-emergence, 240 h, read-out: Plant response rating, Foxtail, Giant
In short: as §1

[4] = tested on: pigweed (Amaranthus retroflexus); test: Test A preemergence; conditions: Amaranthus retroflexus, pre-emergence, 240 h, read-out: Plant response rating, Pigweed
[5] = tested on: ragweed (common ragweed, Ambrosia elatior); test: Test A preemergence; conditions: Ambrosia artemisiifolia, pre-emergence, 240 h, read-out: Plant response rating, Ragweed
In short: as §1

[6] = tested on: ryegrass, Italian (Italian ryegrass, Lolium multiflorum); test: Test A preemergence; conditions: Lolium multiflorum, pre-emergence, 240 h, read-out: Plant response rating, Ryegrass, Italian
In short: as §1

[7] = tested on: Galium (catchweed bedstraw, Galium aparine); test: Test A postemergence; conditions: Galium, post-emergence, 240 h, read-out: Plant response rating, Galium
In short: as §1

Kochia (Kochia scoparia) [8] = test: Test A postemergence; conditions: Bassia scoparia, post-emergence, 240 h, read-out: Plant response rating, Kochia
In short: as §1

[9] = tested on: barnyardgrass (Echinochloa crus-galli); test: Test A postemergence; conditions: Echinochloa crus-galli, post-emergence, 240 h, read-out: Plant response rating, Barnyardgrass
In short: as §1

[10] = tested on: blackgrass (Alopecurus myosuroides); test: Test A postemergence; conditions: Alopecurus myosuroides, post-emergence, 240 h, read-out: Plant response rating, Blackgrass
In short: as §1

corn (Zea mays) = test: Test A postemergence; conditions: Zea mays, post-emergence, 240 h
In short: as §1

[11] = tested on: giant foxtail (Setaria faberii); test: Test A postemergence; conditions: Setaria faberi, post-emergence, 240 h, read-out: Plant response rating, Foxtail, Giant
In short: as §1

[12] = tested on: pigweed (Amaranthus retroflexus); test: Test A postemergence; conditions: Amaranthus retroflexus, post-emergence, 240 h, read-out: Plant response rating, Pigweed
In short: as §1

[13] = tested on: ragweed (common ragweed, Ambrosia elatior); test: Test A postemergence; conditions: Ambrosia artemisiifolia, post-emergence, 240 h, read-out: Plant response rating, Ragweed
In short: as §1

[14] = tested on: ryegrass, Italian (Italian ryegrass, Lolium multiflorum); test: Test A postemergence; conditions: Lolium multiflorum, post-emergence, 240 h, read-out: Plant response rating, Ryegrass, Italian
In short: as §1

[15] = tested on: wheat (Triticum aestivum); test: Test A postemergence; conditions: Triticum aestivum, post-emergence, 240 h, Postemergence, 31 g ai/ha; visual injury after approx. 10 d; 0 to 100 scale, 0 no effect, 100 complete control; read-out: Plant response rating, Wheat
In short: as §1

[16] = 125 g ai/ha, preemergence, visual rating after approx. 10 d, 0 to 100 scale where 0 is no effect and 100 is complete control
[17] = Preemergence, 31 g ai/ha, 0 to 100 scale (0 no effect, 100 complete control)
[18] = 125 g ai/ha, postemergence, visual injury after approximately 10 d, 0 to 100 scale (0 no effect, 100 complete control)
[19] = Postemergence, 31 g ai/ha, visual injury after approx. 10 d, 0 to 100 scale, 0 no effect, 100 complete control

## O=C1NCC[C@H](c2ccc(Cl)cc2)[C@H]1C(=O)Nc1cccc(F)c1F [Compound 795]
Kochia (Kochia scoparia) [1]; [16]
  pest or weed control at 125 g/ha: 0%
Kochia (Kochia scoparia) [1]; [17]
  pest or weed control at 31 g/ha: 0%
[2]; [16]
  pest or weed control at 125 g/ha: 80%
[2]; [17]
  pest or weed control at 31 g/ha: 30%
[3]; [16]
  pest or weed control at 125 g/ha: 70%
[3]; [17]
  pest or weed control at 31 g/ha: 0%
[4]; [16]
  pest or weed control at 125 g/ha: 0%
[4]; [17]
  pest or weed control at 31 g/ha: 0%
[5]; [16]
  pest or weed control at 125 g/ha: 0%
[5]; [17]
  pest or weed control at 31 g/ha: 0%
[6]; [16]
  pest or weed control at 125 g/ha: 0%
[6]; [17]
  pest or weed control at 31 g/ha: 0%
[7]; [18]
  pest or weed control at 125 g/ha: 0%
[7]; [19]
  pest or weed control at 31 g/ha: 0%
Kochia (Kochia scoparia) [8]; [18]
  pest or weed control at 125 g/ha: 0%
Kochia (Kochia scoparia) [8]; [19]
  pest or weed control at 31 g/ha: 0%
[9]; [18]
  pest or weed control at 125 g/ha: 70%
[9]; [19]
  pest or weed control at 31 g/ha: 20%
[10]; [18]
  pest or weed control at 125 g/ha: 0%
[10]; [19]
  pest or weed control at 31 g/ha: 0%
Corn (Zea mays); [18]
  Corn plant response rating (crop injury, 0 = no effect, 100 = complete kill) at 125 g/ha: 0%
Corn (Zea mays); [19]
  Corn plant response rating (crop injury, 0 = no effect, 100 = complete kill) at 31 g/ha: 0%
[11]; [18]
  pest or weed control at 125 g/ha: 50%
[11]; [19]
  pest or weed control at 31 g/ha: 0%
[12]; [18]
  pest or weed control at 125 g/ha: 0%
[12]; [19]
  pest or weed control at 31 g/ha: 0%
[13]; [18]
  pest or weed control at 125 g/ha: 0%
[13]; [19]
  pest or weed control at 31 g/ha: 0%
[14]; [18]
  pest or weed control at 125 g/ha: 0%
[14]; [19]
  pest or weed control at 31 g/ha: 0%
[15]
  plant injury at 31 g/ha: 0%
